Reference: publication PMC6264777, “New Catechol Derivatives of Safrole and Their Antiproliferative Activity towards Breast Cancer Cells” (Molecules, 2011)
Like-named read-outs stand apart in the source and are kept apart here.

Assays:
[1] = system: dermal human fibroblast cells (DHF); assay: cells; assay type: cell-based; settings: for IC50: read-out: IC50 DHF
MDA-MB-231 cells = assay: Sulforhodamine B in vitro growth inhibition assay, MDA-MB-231; assay type: cell-based, human; settings: read-out: IC50 (μM) MDA-MB-231
Protocol: (§1) IC50 values of compounds 3-11, safrole, catechol 2 and the reference compound daunorubicin are summarized in Table 1 as the micromolar concentration that produces 50% cell growth inhibition after 72 hours of drug exposure.
(§2) The experimental cell cultures were obtained from American Type Culture Collection (Rockville, MD, USA). MCF-7, MDA-MB-231 cells were grown in DMEM-F12 medium containing 10% FCS, 100 U/mL penicillin, 100 µg/mL streptomycin and 1 mM glutamine. Cells are seeded into 96 well microtiter plates in 100 µL at plating density of 3 × 10^3 cells/well. After 24 h incubation at 37 °C (under a humidified 5% carbon dioxide to allow cell attachment) the cells were treated with different concentrations of drugs (safrole and derivatives) and incubated for 72 h under the same conditions. Stock solution of compounds was prepared in ethanol and the final concentration of this solvent was kept constant at 0.1%. Control cultures received 0.1% ethanol alone.
(§3) The sulforhodamine B assay according to the method of Skehan et al. was used with some modifications. Briefly, the cells were set up 3 × 10^3 cells per well of a 96-well, flat-bottomed 200 μL microplate. Cells were incubated at 37 °C in a humidified 5% CO2/95% air mixture and treated with the compounds at different concentrations for 72 hours. At the end of drug exposure, cells were fixed with 50% trichloroacetic acid at 4 °C (TCA final concentration 10%). After washing with destilled water, cells were stained with 0.1% sulforhodamine B (Sigma-Aldrich, St. Louis, MO, USA), dissolved in 1% acetic acid (50 µL/well) for 30 min, and subsequently washed with 1% acetic acid to remove unbound stain. Protein-bound stain was solubilized with 100 µL of 10 mM unbuffered Tris base. The cell density was determined using a […] plate reader (wavelength 540 nm). Values shown are the mean + SD three independent experiments in triplicate.

MCF-7 cells = assay: Sulforhodamine B in vitro growth inhibition assay, MCF-7; assay type: cell-based, human; settings: read-out: IC50 (μM) MCF-7
Protocol: as §1, §2, §3

various human cell types = settings: cited from earlier work
[2] = 50% cell growth inhibition after 72 hours of drug exposure, SRB, mean ± SD, three independent experiments in triplicate
[3] = Homo sapiens, Fibroblast, 50% cell growth inhibition after 72 hours of drug exposure, SRB, non-tumoral cells
[4] = Homo sapiens, MDA-MB-231, 50% cell growth inhibition after 72 hours of drug exposure, SRB, mean ± SD, three independent experiments in triplicate
[5] = Homo sapiens, MCF7, 50% cell growth inhibition after 72 hours of drug exposure, SRB, mean ± SD, three independent experiments in triplicate

| Compound | IC50 [1, 3] [µM] | IC50 (MDA-MB-231 cells; [4]) [µM] | IC50 (MCF-7 cells; [5]) [µM] | also measured |
| --- | --- | --- | --- | --- |
| 4-allyl-1,2-phenylene diacetate [Compound 7] | – | – | – | IC50 ([1]; 50% cell growth inhibition after 72 hours of drug exposure, SRB, non-tumoral cells): > 100 µM; IC50 (MDA-MB-231 cells; [2]): 41.7 ± 7.4 µM; IC50 (MCF-7 cells; [2]): > 100 µM |
| C=CCc1cc(O)c(O)cc1[N+](=O)[O-] [Compound 2, 4-allyl-5-nitrobenzene-1,2-diol] | > 100 | 37.5 ± 2.65 | 55 ± 7.11 | – |
| C=CCc1ccc(O)c(O)c1 [Compound 3, 4-allylbenzene-1,2-diol] | > 100 | 40.2 ± 6.9 | 98.4 ± 11.6 | toxicity towards dermal human fibroblast (DHF cells) [1]: without toxicity |
| C=CCc1ccc(OC(C)=O)c(OC(C)=O)c1 [Compound 4, 4-allyl-1,2-phenylene diacetate] | > 100 | 54.7 ± 6.6 | > 100 | – |
| OCCCc1ccc(O)c(O)c1 [Compound 5, 4-(3-hydroxypropyl)benzene-1,2-diol] | > 100 | 54.3 ± 4.1 | > 100 | – |
| CC(=O)OCCCc1ccc(OC(C)=O)c(OC(C)=O)c1 [Compound 6, 4-[3-(acetyloxy)propyl]-1,2-phenylene diacetate] | > 100 | 5.9 ± 0.8 | 97.8 ± 12.4 | – |
| O=[N+]([O-])c1cc(O)c(O)cc1CCCO [Compound 8, 4-(3-hydroxypropyl)-5-nitrobenzene-1,2-diol] | > 100 | 57.3 ± 4.1 | 78.2 ± 8.9 | – |
| CC(O)Cc1cc(O)c(O)cc1[N+](=O)[O-] (centres unmarked) [Compound 9, 4-(2-hydroxypropyl)-5-nitrobenzene-1,2-diol] | > 100 | > 100 | > 100 | – |
| CC(=O)OCCCc1cc(OC(C)=O)c(OC(C)=O)cc1[N+](=O)[O-] [Compound 10, 4-[3-(acetyloxy)propyl]-5-nitro-1,2-phenylene diacetate] | > 100 | 33.8 ± 4.9 | 51.3 ± 2.1 | – |
| CC(=O)OCCCc1cc(O)c(O)cc1[N+](=O)[O-] [Compound 11, 3-(4,5-dihydroxy-2-nitrophenyl)propyl acetate] | > 100 | 27.1 ± 4.4 | 63.8 ± 5.5 | – |
| COc1cccc2c1C(=O)c1c(O)c3c(c(O)c1C2=O)C[C@@](O)(C(C)=O)C[C@@H]3O[C@H]1C[C@H](N)[C@H](O)[C@H](C)O1 [Daunorubicin, reference compound] | 14.3 ± 1.85 | 0.38 ± 0.06 | 0.19 ± 0.01 | – |
| C=CCc1ccc2c(c1)OCO2 [safrole, Safrole] | – | – | – | IC50 ([1]; Homo sapiens, Fibroblast, 72 h): > 100 µM; IC50 (MDA-MB-231 cells; Homo sapiens, MDA-MB-231, 72 h): > 100 µM; concentrations at which safrole becomes cytotoxic (various human cell types): 5000 to 10000 µM; IC50 (MCF-7 cells; Homo sapiens, MCF7, 72 h): > 100 µM |
